Residue numbers refer to the chain shown, from its start. Where two headings read alike, the source gives them in different places. *1 amine or outer side, *2 acyl side, *3 side chain or, on linkers, in order; H or OH if unused. Where a SMILES comes first, the peptide text is derived from it. Bridges are numbered along the chain shown (N, C = ends). Roman numbers before positions name the chains, in order. [ ]: non-standard residue; d: D form. Actinocin(9to1) = Cc1c2oc3c(C)ccc(C(=O)[*:1])c3nc-2c(C(=O)[*:2])c(N)c1=O; NMeV = CN[C@H](C(=O)O)C(C)C; Sar = CNCC(=O)O
Columns and labels:
human Topo I [1] = biological target: T1, human Topo I (Homo sapiens, UniProt P11387); experiment: Solid phase topo I HTS assay (His-tag topo I on nickel coated plates, pHOT1 DNA retention by Picogreen fluorescence); format: biochemical; design: The intact human topo I gene was cloned as a His-tag gene; purchased TopoGEN, Inc. (Port Orange, Fla.); host or cells: baculovirus-infected Spodoptera frugiperda Sf9 cells; details: for fold increase in DNA binding to wells due to CPT: 96 well
T1 sequence (P11387 1-765): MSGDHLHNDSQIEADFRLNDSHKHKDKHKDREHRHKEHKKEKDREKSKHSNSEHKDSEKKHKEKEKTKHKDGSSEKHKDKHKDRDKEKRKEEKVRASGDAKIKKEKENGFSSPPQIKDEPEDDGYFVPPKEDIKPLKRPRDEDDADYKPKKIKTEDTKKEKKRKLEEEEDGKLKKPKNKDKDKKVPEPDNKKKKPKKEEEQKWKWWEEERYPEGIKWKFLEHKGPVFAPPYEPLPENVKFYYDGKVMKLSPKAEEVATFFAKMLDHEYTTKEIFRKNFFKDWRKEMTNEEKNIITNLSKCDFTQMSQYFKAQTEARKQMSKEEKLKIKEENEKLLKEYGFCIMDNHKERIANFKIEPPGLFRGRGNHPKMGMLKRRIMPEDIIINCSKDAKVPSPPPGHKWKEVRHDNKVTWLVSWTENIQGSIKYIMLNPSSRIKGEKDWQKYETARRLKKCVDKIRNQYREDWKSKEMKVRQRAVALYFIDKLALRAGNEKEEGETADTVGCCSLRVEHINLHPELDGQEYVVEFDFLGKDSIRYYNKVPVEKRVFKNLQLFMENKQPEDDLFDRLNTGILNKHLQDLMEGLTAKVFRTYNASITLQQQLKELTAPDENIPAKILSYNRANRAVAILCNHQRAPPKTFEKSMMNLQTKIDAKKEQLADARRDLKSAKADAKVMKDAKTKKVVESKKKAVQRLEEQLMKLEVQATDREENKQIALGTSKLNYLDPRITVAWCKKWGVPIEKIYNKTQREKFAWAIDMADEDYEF
Protocol: FIG. 8 is a flowchart depicting the model for solid phase Topo I screening. […] Free enzyme is washed out and pHOT1 supercoiled DNA is added in a topo I assay buffer. […] Free DNA is then washed out and the relative fluorescence is measured using Picogreen staining. […] The results are expressed as an “HTS Ratio” corresponding to the RFU of experimental to RFU of negative controls (no CPT).
The unbound enzyme was removed by aspirating off the initial binding solution followed by three washes (about 200 uL each) with cold PBS containing about 0.05% Tween-20 (PBS-T). […] Drugs were dissolved in DMSO and the final DMSO concentration in the reaction never exceeded about 1%. Reactions were incubated for about 1 hr at about 37° C. and terminated by the addition of about 0.1 vol of about 1% SDS (vol:vol) followed by a about 5 min incubation at about 37° C. The reaction mixture was next aspirated and washed three times with about 200 uL PBS-T. Picogreen (about 100 ug/mL) was diluted in TE (about 1:400) and about 200 µl was added to each well followed by incubation in the dark for about 5 min. The relative fluorescence was measured at about 485 nm excitation and about 525 nm emission wavelength using a Tecan reader.
In step 5, the readout (relative fluorescent units or RFU retained in the wells) is analyzed based on what is referred to as the ‘HTS Ratio’ (RFU Experimental/RFU in negative control).
Free enzyme is washed out and pHOT1 supercoiled DNA is added in a topo I assay buffer. […] Free DNA is then washed out and the relative fluorescence is measured using Picogreen staining. […] The results are expressed as an “HTS Ratio” corresponding to the RFU of experimental to RFU of negative controls (no CPT).

Y723F topo I mutant = biological target: T2, Y723F topo I mutant (Homo sapiens, UniProt P11387, Y723F); experiment: Solid phase assay with catalytically inactive Y723F topo I mutant; format: biochemical; details: highest input of protein
T2 construct: purchased TopoGEN, Inc. (Port Orange, Fla.); host or cells: baculovirus expression (Sf9)
T2 sequence (P11387 1-765 Y723F): T1 sequence (P11387 1-765) with Y723F
Protocol: The unbound enzyme was removed by aspirating off the initial binding solution followed by three washes (about 200 uL each) with cold PBS containing about 0.05% Tween-20 (PBS-T). […] Drugs were dissolved in DMSO and the final DMSO concentration in the reaction never exceeded about 1%. Reactions were incubated for about 1 hr at about 37° C. and terminated by the addition of about 0.1 vol of about 1% SDS (vol:vol) followed by a about 5 min incubation at about 37° C.

human Topo I [2] = biological target: T1, human Topo I; experiment: Topo I cleavage complex formation / liquid reactions analysed on agarose-ethidium bromide gel
pHOT1 DNA = experiment: Nicking of pHOT1 DNA in the absence of topo I
Protocol: . This may explain why some bifunctional alkylators are picked up by the assay. […]. Thus, about 5 compounds out of about 50 scored as potential topo I IFP at about 100 uM input of purified test drug (single asterisk, FIG. 10). A relatively high input of test drug concentrations to amplify false positives was; however, in a typical HTS experiment the concentrations would be much lower and would detect far fewer false leads. […].

[3] = test drug about 100 uM, about 1.0 = minus CPT control, solid phase

CC[C@@]1(O)C(=O)OCc2c1cc1n(c2=O)Cc2cc3ccccc3nc2-1 [CPT, Camptothecin] was tested, and the “magnitude of the increase in +CPT controls” value (human Topo I [1]; 96 well format (comparison)) was “about 2.6 fold”, the “magnitude of the increase in +CPT controls” value (human Topo I [1]; 384 well format) was “about 1.7 fold” and the “fraction of well-bound DNA that is nicked form II” value (human Topo I [1]; CPT reactions, about 512 units topo I, about 5 uM CPT, no-CPT about 20%) was “about 70%”. The “fraction of well-bound DNA that is relaxed (Ir)” value (human Topo I [1]; CPT reactions, about 512 units topo I, about 5 uM CPT, no-CPT about 80%) was “about 30%”, the “drug concentration dependency of solid phase readout” value (human Topo I [1]; CPT titration, about 512 units topo I, about 100 ng DNA) was “did not display drug concentration dependency” and the “magnitude of the increase in form II DNA in +CPT wells over no drug controls” value (human Topo I [1]; DNA recovered from wells, gel analysis) was 2-3 fold. The “fold increase in DNA binding to wells due to CPT” value (human Topo I [1]; about 16-64 units topo I, about 5 uM CPT) was 1.2-2 fold, the “fold increase in DNA binding to wells due to CPT” value (human Topo I [1]; about >100 units topo I, about 5 uM CPT) was 2.5-2.7 fold and the “mean relative fluorescence, +CPT” value (human Topo I [1]; high topo I inputs (about 1024, about 512 units), SD +/- about 153, -CPT mean about 1181) was “about 2877”. For the same molecule, the “time course of CPT induced complexes” value (human Topo I [1]; solid phase) was “continue to accumulate over several hours”, the “relative fluorescence (RFU) of a typical reaction, + control” value (human Topo I [1]; typical reaction, - control about 2000) was “about 4000 fluorescent units” and the “CPT stimulation of DNA binding with mutant protein” value (Y723F topo I mutant) was “did not display any CPT stimulation”. For the same molecule, the “time for CPT induced complexes to reach a maximal stoichiometric value” (human Topo I [2]; in solution) was “within a few minutes”.

With Cc1c2oc3c(C)ccc(C(=O)N[C@@H]4C(=O)N[C@H](C(C)C)C(=O)N5CCC[C@H]5C(=O)N(C)CC(=O)N(C)[C@@H](C(C)C)C(=O)O[C@@H]4C)c3nc-2c(C(=O)N[C@@H]2C(=O)N[C@H](C(C)C)C(=O)N3CCC[C@H]3C(=O)N(C)CC(=O)N(C)[C@@H](C(C)C)C(=O)O[C@@H]2C)c(N)c1=O [Dactinomycin] (I: T[dV]P[Sar][NMeV] / II: T[dV]P[Sar][NMeV]; ester I:1-I:C, II:1-II:C; linker I:N-II:N via Actinocin(9to1)) the “HTS Ratio (RFU experimental / RFU negative control, no CPT)” value (human Topo I [1]; [3]) was “about 1.4”.

CCc1c2c(nc3ccc(OC(=O)N4CCC(N5CCCCC5)CC4)cc13)-c1cc3c(c(=O)n1C2)COC(=O)[C@]3(O)CC [Irinotecan] was tested, and the “HTS Ratio (RFU experimental / RFU negative control, no CPT)” value (human Topo I [1]; [3]) was “about 1.4”.

With N[C@@H](Cc1ccc(N(CCCl)CCCl)cc1)C(=O)O [Melphalan] the “HTS Ratio (RFU experimental / RFU negative control, no CPT)” value (human Topo I [1]; [3]) was 1.2-1.3.

In the case of CNNCc1ccc(C(=O)NC(C)C)cc1 [Procarbazine], the “HTS Ratio (RFU experimental / RFU negative control, no CPT)” value (human Topo I [1]; [3]) is reported as “about 1.65”.

With O=C(c1ccc(OCCN2CCCCC2)cc1)c1c(-c2ccc(O)cc2)sc2cc(O)ccc12 [Raloxifene] the “HTS Ratio (RFU experimental / RFU negative control, no CPT)” value (human Topo I [1]; test drug about 100 uM, about 1.0 = minus CPT control, solid phase, listed as Reloxifene) was “about 2.0”.

In the case of CC/C(=C(\c1ccccc1)c1ccc(OCCN(C)C)cc1)c1ccccc1 [Tamoxifen], the “induction of topo I cleavages” value (human Topo I [2]; data not shown, less than with CPT) is reported as “induced topo I cleavages”.

For Oc1ncc(N(CCCl)CCCl)c(O)n1 [Uracil mustard], the “HTS Ratio (RFU experimental / RFU negative control, no CPT)” value (human Topo I [1]) was “about 1.1” and the “single strand DNA nicks in pHOT1 DNA” value (pHOT1 DNA) was “induce single strand DNA nicks”.

With O=C1c2c(O)ccc(O)c2C(=O)c2c(NCCNCCO)ccc(NCCNCCO)c21 [mitoxantrone] the “effect on DNA binding to bound topo I” value (human Topo I [1]; solid phase HTS) was “strongly reduce DNA binding”.

Source: patent US20140106342A1, “METHOD OF ASSAYING DNA TOPOISOMERASES AND DNA BINDING PROTEINS USING HIGH THROUGHPUT SCREENING” (priority 2011, published 2014)
